{"source": "patent US12281335B2", "about": "“Methods and compositions for delivery of viral vectors across the blood-brain barrier” (priority 2017, dated 2025)", "key": {"[1]": {"tested_on": "HEK293 cells or Huh7 cells", "assay": "In vitro transduction assay, AAV8/luc with peptides", "format": "cell-based, human", "conditions": "10000 vg AAV8/luc incubated with peptides 2 h at 4° C.; both cell lines; 48 h; vs AAV8 only", "protocol": "In vitro transduction assay. At least 4-5 h prior to AAV transduction, cells were seeded in 48-well plates with a density of 1E+05 cells each well. Cells were infected with 1E+04 vector genomes (vg) of AAV8/luc virus per cell and harvested after 48 h. Luciferase activity was measured following manufacturer's instruction (Promega, Madison, WI).\nThe complex of AAV8 and peptides influences AAV8 transduction in vitro and in vivo. To identify the potential and functional peptides that enhanced AAV8 transduction, we screened several reported peptides as shown in Table 5 and Table 6. First, we tested the cytotoxicity of peptides at different concentrations on cells. […] After that, we performed the transduction assay in vitro. We incubated the 10000 vg AAV8/luc and peptides for 2 h at 4° C., and then applied the mixture to HEK293 cells or Huh7 cells. After 48 h, the cell lysate was collected for luciferase analysis."}, "mouse TfR1": {"molecular_target": "T1, mouse TfR1 (Mus musculus, UniProt Q62351)", "T1 construct": "expressed in transfected cells; host or cells: CHO-TRVB cells (devoid of endogenous TfR1)", "T1 sequence (Q62351 whole entry)": "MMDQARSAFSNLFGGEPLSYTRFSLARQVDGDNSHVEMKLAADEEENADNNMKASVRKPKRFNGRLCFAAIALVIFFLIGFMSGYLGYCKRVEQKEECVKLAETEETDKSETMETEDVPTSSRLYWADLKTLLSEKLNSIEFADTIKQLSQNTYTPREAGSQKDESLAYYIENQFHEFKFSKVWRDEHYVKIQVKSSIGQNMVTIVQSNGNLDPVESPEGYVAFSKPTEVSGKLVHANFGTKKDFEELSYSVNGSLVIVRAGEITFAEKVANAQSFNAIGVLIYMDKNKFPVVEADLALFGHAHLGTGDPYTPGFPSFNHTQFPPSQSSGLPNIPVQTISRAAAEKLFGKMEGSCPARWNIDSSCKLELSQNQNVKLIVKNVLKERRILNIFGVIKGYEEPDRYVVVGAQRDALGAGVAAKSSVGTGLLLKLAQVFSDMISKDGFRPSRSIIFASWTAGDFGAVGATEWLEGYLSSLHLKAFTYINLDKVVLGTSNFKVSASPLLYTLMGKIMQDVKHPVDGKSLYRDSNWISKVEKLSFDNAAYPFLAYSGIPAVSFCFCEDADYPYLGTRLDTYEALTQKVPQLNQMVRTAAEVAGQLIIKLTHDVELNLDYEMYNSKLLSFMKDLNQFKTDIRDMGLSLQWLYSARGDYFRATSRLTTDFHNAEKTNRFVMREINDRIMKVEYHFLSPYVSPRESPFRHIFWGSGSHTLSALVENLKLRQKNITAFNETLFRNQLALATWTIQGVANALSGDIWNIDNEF", "assay": "Immunofluorescence assay on CHO-TRVB cells", "format": "binding", "conditions": "5-FAM-THR", "protocol": "Immunofluorescence. Plasmids mCherry-TFR-20 and mCherry-mTfR-20 were separately transfected into the 50-70% confluent CHO-TRVB cells grown on glass coverslips using lipofectamine 3000 reagent (Invitrogen, USA). After 48 h post-transfection, the coverslips were washed and incubated with 1 nM 5-FAM-THR at 37° C. for 1 h, then cells were acid-washed with 0.2 M glycine/HCl, pH 2.2, and fixed in 4% paraformaldehyde for 30 min at 4° C. Finally, DAPI was used at a 1:5,000 dilution for 5 min at RT. Coverslips were mounted and imaged on the Olympus IX-83 fluorescence microscope."}, "C57BL/6 mice [2]": {"tested_on": "C57BL/6 mice", "assay": "In vivo luciferase imaging after retro-orbital injection of AAV8/luc with peptides", "set-up": "species or system mouse", "quoted_text": "(§1) Animal study. […] Mice were administered with AAV8/Luc incubated with peptides via retro-orbital injection. Luciferase expression was imaged at the indicated time points using a Xenogen IVIS Lumina (Caliper Lifesciences, Waltham, MA) following intraperitoneal injection of D-luciferin substrate (Nanolight Pinetop, AZ). Bioluminescent images were analyzed using Living Image (PerkinElmer, Waltham, MA). At various time points after injection, blood was collected from the retro-orbital plexus, and the viral titers were tested by qPCR."}, "C57BL/6 mice [3]": {"tested_on": "C57BL/6 mice", "assay": "Quantitation of luciferase expression in tissues", "format": "in vivo, mouse", "protocol": "Quantitation of luciferase expression in tissues. Animals utilized for imaging studies were sacrificed after one-week post imaging work, and the tissues of the heart, liver, spleen, skeletal muscle and brain were collected, and were minced and homogenized in passive lysis buffer. Then the lysates were centrifuged at 10,000 rpm for 5 minutes to remove cellular debris. Supernatant was transferred to 96-well plates for luciferase activity analysis as described above. Total protein concentration in tissue lysates was measured using the Bradford assay (Bio-Rad Laboratories, Philadelphia, PA)."}, "C57BL/6 mice [4]": {"tested_on": "C57BL/6 mice", "assay": "Measurement of AAV genome copy number in tissue", "format": "in vivo, mouse", "protocol": "Measurement of AAV genome copy number in tissue. Total gDNA from different minced tissues was isolated with the DNeasy blood & tissue kit (Qiagen, USA). Luciferase gene was measured by qPCR assay. Mouse-lamin gene served as an internal control."}, "Huh7 or HEK293 cells": {"tested_on": "Huh7 or HEK293 cells", "assay": "Neutralization assay (Nab titer)", "format": "cell-based, human", "conditions": "THR at different concentrations", "protocol": "Neutralization assay. Huh7 or HEK293 cells were seeded in 48-well plates with a density of 5E+04 cells each well. The complex of AAV8/luc and different concentrations of THR was incubated at 4° C. for 2 h, then, two-fold dilutions of the mouse AAV8 sera were incubated with 1E+04vg of AAV8/luc virus or the complex of AAV8/luc and THR per cell for 1 h at 37° C. The final mixture was added into cells and incubated at 37° C. for 48 h. Cells were lysed with passive lysis buffer (Promega, Madison, WI) and luciferase activity was measured. Nab titers were defined as the highest dilution for which luciferase activity was 50% lower than serum-free controls."}, "Huh7 cells": {"tested_on": "Huh7 cells", "assay": "AAV8 binding assay", "format": "cell-based, human", "conditions": "4° C., 1 h; genome copy number normalized to GAPDH", "protocol": "AAV8 binding assay. The complex of AAV8/luc and THR or human apo-transferrin protein (Sigma, 616395, USA) was incubated at 4° C. for 2 h, 10000 vg AAV8/luc virus alone or the complex was added into Huh7 cells at a cell density of 4E+05 per well for 1 h at 4° C., and then washed with DPBS 3 times. Finally, genome DNA (gDNA) was extracted from the cells with the DNeasy blood & tissue kit (Qiagen, USA) and was quantified by qPCR with luciferase primers and reference GAPDH primers."}, "[5]": {"tested_on": "human transferrin binding to AAV8 virions", "assay": "AAV8 competitive binding assay", "conditions": "pre-incubation with AAV8, then human transferrin; pull down with transferrin antibody, qPCR", "protocol": "AAV8 competitive binding assay. For THR competitive binding analysis, 10 ul of Protein G resin (Thermo, USA) per system was incubated with 1 ug of human transferrin antibody or goat IgG antibody control at 4° C. overnight. […] After that, the mixture was added to the complex of protein G resin and transferrin antibody and incubated at 4° C. overnight. Finally, the complex was stringently washed three times with cold DPBS. DNA from the complex was extracted and applied for qPCR to determine AAV genome copy number per cell using luc specific primers.\nTo investigate whether THR also binds to the same location of AAV8 virions as human serum proteins, we performed a competitive assay. […] The transferrin antibody was used to pull down transferrin bound AAV8 virions and AAV8 gene copy number was measured by qPCR."}, "[6]": {"assay": "AAV9 brain transduction with THR after systemic administration", "format": "in vivo"}, "C57BL/6 mice [7]": {"tested_on": "C57BL/6 mice", "conditions": "1E+11 vg each mouse, intravenous; 5 min to 48 h; vs AAV8/luc", "quoted_text": "as §1"}}, "note": "“Also recorded” adds a separate entry of the source. Ends that are not written are not given here.", "data": [{"substance": "THRPPMWSPVWP-NH2 [THR]", "values": [{"measurement": "AAV8 transduction (luciferase)", "setting": "[1]", "value": "significantly enhanced AAV8 transduction; also recorded: the most significant increase of AAV8 transduction"}, {"measurement": "interaction with mouse TfR1", "setting": "mouse TfR1", "value": "could interact with mouse TfR1"}, {"measurement": "AAV8 transduction in the whole body, especially brain (imaging)", "setting": "C57BL/6 mice [2]; 0.1 mM peptide + 5E+10 vg AAV8/luc, 7th day", "value": "significantly increased AAV8 transduction overall; also recorded: significantly enhances AAV8 transduction in vivo, especially in the brain"}, {"measurement": "transgene expression in the liver (imaging)", "setting": "C57BL/6 mice [2]; 0.1 mM peptides + 5E+10 vg AAV8/luc, retro-orbital vein, 7th day", "value": "higher"}, {"measurement": "AAV8 transduction in whole body and brain (imaging), high dose", "setting": "C57BL/6 mice [2]; 1E+11 vg each mouse, AAV8-0.1 mM THR", "value": "enhanced the AAV8 transduction in both the whole body and the brain"}, {"measurement": "AAV8 liver transduction (imaging), THR mixed just before injection", "setting": "C57BL/6 mice [2]; AAV8/0.1 mM THR, no pre-incubation", "value": "blocked AAV8 liver transduction"}, {"measurement": "luciferase imaging signal, dose dependence", "setting": "C57BL/6 mice [2]; different concentrations of THR + 5E+10 particles AAV8/luc", "value": "stronger imaging signals; also recorded: enhances the AAV8 transduction in vivo in a dose-dependent manner"}, {"measurement": "AAV8 brain transduction (luc expression and genome number)", "setting": "C57BL/6 mice [3]; 0.1 mM peptides + 5E+10 vg AAV8/luc", "value": "increased AAV8 transduction in the brain"}, {"measurement": "luciferase expression and virus distribution in the brain, THR mixed just before injection", "setting": "C57BL/6 mice [3]; AAV8/0.1 mM THR, no pre-incubation, vs AAV8", "value": "did not observe a significant difference"}, {"measurement": "AAV genome copy number in the brain", "setting": "C57BL/6 mice [4]; 0.1 mM peptides + 5E+10 vg AAV8/luc, vs AAV8 only", "value": "much higher"}, {"measurement": "gene copy number in liver, brain and spleen", "setting": "C57BL/6 mice [4]; three groups with different THR concentrations + 5E+10 particles AAV8/luc", "value": "significantly higher enhancement than the control group; also recorded: more vector genome copy number in the brain"}, {"measurement": "AAV8/luc neutralization titer (Nab titer)", "setting": "Huh7 or HEK293 cells", "value": "did not interfere with the AAV8/luc neutralization titer; also recorded: does not interfere with the AAV8 biology"}, {"measurement": "AAV8 virions binding to the Huh7 cells surface", "setting": "Huh7 cells", "value": "dramatically increased AAV8 virions binding; also recorded: enhanced the binding ability of AAV8 dose dependently"}, {"measurement": "inhibition of transferrin binding to AAV8", "setting": "[5]", "value": "competes with human transferrin binding to AAV8"}, {"measurement": "AAV9 brain transduction after systemic administration", "setting": "[6]", "value": "failed to enhance AAV9 brain transduction"}, {"measurement": "blood clearance of AAV8", "setting": "C57BL/6 mice [7]", "value": "decreasing the AAV8 clearance in the blood"}]}]}
